What was measured:
Type in all cases: biochemical
Mtb20S = Mtb20S (Mycobacterium tuberculosis, UniProt P9WHT9); conditions: for inhibitory potency against Mtb20S (in words): qualitative statement, comparison as stated in the sentence
human i-20S β5i = human i-20S β5i (Homo sapiens, UniProt P20618+P28062); assay: Human immunoproteasome inhibition assay; conditions: for inhibitory potency against human i-20S (in words): qualitative statement, comparison as stated in the sentence
human c-20S β5c = human c-20S β5c (Homo sapiens, UniProt P20618+P28074); conditions: qualitative statement; comparison as stated in the sentence

Mtb20S, sequence (P9WHT9 58-291): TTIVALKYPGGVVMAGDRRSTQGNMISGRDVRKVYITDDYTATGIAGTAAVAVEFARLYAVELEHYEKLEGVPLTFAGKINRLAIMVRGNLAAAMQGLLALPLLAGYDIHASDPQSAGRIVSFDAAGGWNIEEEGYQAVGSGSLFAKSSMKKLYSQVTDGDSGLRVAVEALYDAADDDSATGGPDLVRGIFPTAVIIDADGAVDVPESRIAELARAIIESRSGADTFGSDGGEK

`Cc1cc(C(=O)N[C@@H](CC(=O)N2CCCC[C@@H]2C)C(=O)N[C@@H](C)C(=O)NCc2ccc(F)cc2F)no1` [A85] was tested, and the “inhibitory potency against Mtb20S (in words)” value (Mtb20S) was “maintaining potency” and the “selectivity for Mtb20S over i-20S β5i” value (human i-20S β5i) was 4 fold.

`Cc1cc(C(=O)N[C@@H](CC(=O)N2CCC[C@@H]2c2ccccc2)C(=O)N[C@@H](C)C(=O)NCc2ccc(F)cc2F)no1` [A86] was tested, and the “improvement in IC50 values against Mtb20S” value (Mtb20S; relative to A85) was 2.4 fold.

With `Cc1cc(C(=O)N[C@@H](CC(=O)N2CCC[C@@H]2c2ccccc2)C(=O)N[C@@H](C)C(=O)NCc2c(F)cccc2F)no1` [A119] the “inhibitory potency against Mtb20S (in words)” value (Mtb20S) was “maintained” and the “inhibitory potency against human i-20S (in words)” value (human i-20S β5i) was “reduced”.

In the case of `COc1ccccc1CNC(=O)[C@H](C)NC(=O)[C@H](CC(=O)N1CCC[C@@H]1c1ccccc1)NC(=O)c1cc(C)on1` [A120], the “inhibitory potency against human c-20S (in words)” value (human c-20S β5c) is reported as “reduced”, the “inhibitory potency against Mtb20S (in words)” value (Mtb20S) is reported as “reduced” and the “inhibitory potency against human i-20S (in words)” value (human i-20S β5i) is reported as “reduced”.

For `Cc1cc(C(=O)N[C@@H](CC(=O)N2CCCC[C@@H]2C)C(=O)N[C@@H](C)c2ncc(-c3ccccc3)[nH]2)no1` [B1], the “inhibitory potency against Mtb20S (in words)” value (Mtb20S) was “modest inhibitory activity”.

With `Cc1cc(C(=O)N[C@@H](CC(=O)N2CCC[C@@H]2c2ccccc2)C(=O)N[C@@H](C)c2ncc(-c3ccccc3F)[nH]2)no1` [B6] the “selectivity for Mtb20S over both c-20S and i-20S (in words)” value (“selectivity for Mtb20S … (in words)” for short) (Mtb20S) was “markedly selective” and the “inhibitory potency against Mtb20S (in words)” value (Mtb20S) was “highly potent”.

With `Cc1cc(C(=O)N[C@@H](CC(=O)N2CCC[C@@H]2c2ccccc2)C(=O)N[C@@H](C)c2ncc(-c3ccccc3)[nH]2)no1` [B36] the “selectivity for Mtb20S … (in words)” value (Mtb20S) was “markedly selective” and the “inhibitory potency against Mtb20S (in words)” value (Mtb20S) was “highly potent”.

In the case of `Cc1cc(C(=O)N[C@@H](CC(=O)N2CCC[C@@H]2c2ccccc2)C(=O)N[C@@H](C)c2ncc(-c3ccc(F)cc3F)[nH]2)no1` [B37], the “selectivity for Mtb20S … (in words)” value (Mtb20S) is reported as “markedly selective” and the “inhibitory potency against Mtb20S (in words)” value (Mtb20S) is reported as “highly potent”.

— article PMC7091493 (Journal of medicinal chemistry, 2019)
